Inhibition data for 31 compounds are collected here from patent US20100137313A1 (ASTRAZENECA AB, priority 2008, published 2010).

S. pneumoniae Topoisomerase IV ATPase (ParE), sequence (Q59961 whole entry): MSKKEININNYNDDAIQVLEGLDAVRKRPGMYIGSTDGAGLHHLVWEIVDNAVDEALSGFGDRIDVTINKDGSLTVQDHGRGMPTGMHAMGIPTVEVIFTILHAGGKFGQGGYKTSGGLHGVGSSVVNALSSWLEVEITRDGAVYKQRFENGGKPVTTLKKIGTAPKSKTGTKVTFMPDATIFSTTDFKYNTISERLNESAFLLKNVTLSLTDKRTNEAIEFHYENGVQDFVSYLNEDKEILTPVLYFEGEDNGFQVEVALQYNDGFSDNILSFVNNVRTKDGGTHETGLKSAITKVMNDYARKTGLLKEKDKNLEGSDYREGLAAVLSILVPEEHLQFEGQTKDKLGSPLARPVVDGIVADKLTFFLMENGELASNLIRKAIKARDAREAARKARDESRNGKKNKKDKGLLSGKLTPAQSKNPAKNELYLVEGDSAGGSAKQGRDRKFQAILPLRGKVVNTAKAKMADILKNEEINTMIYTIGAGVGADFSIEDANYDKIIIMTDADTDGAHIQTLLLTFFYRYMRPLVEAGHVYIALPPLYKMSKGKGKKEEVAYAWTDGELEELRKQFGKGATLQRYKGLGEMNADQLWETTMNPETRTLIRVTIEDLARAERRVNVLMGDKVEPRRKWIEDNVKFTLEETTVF

For the test, the target named is S. pneumoniae Topoisomerase IV ATPase (ParE) (Streptococcus pneumoniae serotype 4, UniProt Q59961). Briefly: S. pneumoniae Topoisomerase IV ATPase inhibition. Format: biochemical. The settings on record: values marked * are an average of two or more data points, read-out: % Inh (13 μM) of S. pneumoniae Topoisomerase IV ATPase. The procedure, abridged:
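ParE ATPase (1.25 nM) run with 160 μM ATP and 5 μg/ml sheared salmon sperm DNA in Tris pH 8.0, Mg2+, glycerol, DTT, Brij-35. Phosphate released read by malachite green/molybdate absorbance at 650 nm. IC50 from 10 compound concentrations; DMSO (2%) as 0% and EDTA (20 μM) as 100% inhibition.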
Turning to `CCOC(=O)c1cncc(-c2cnc(Nc3ccc(F)c(Cl)c3)nc2N2CCCCCC2)c1` [Example 127, ethyl 5-[4-(azepan-1-yl)-2-[(3-chloro-4-fluorophenyl)amino]pyrimidin-5-yl]pyridine-3-carboxylate], the inhibition at 13 µM is 26.5%.

With `CCOC(=O)c1cncc(-c2cnc(Nc3ccc(F)c(Cl)c3)nc2N[C@H]2CC[C@H](O)CC2)c1` [Example 128, ethyl 5-[2-[(3-chloro-4-fluorophenyl)amino]-4-[(trans-4-hydroxycyclohexyl)amino]pyrimidin-5-yl]pyridine-3-carboxylate], the inhibition at 13 µM is -16.2%.

In the case of `CCOC(=O)c1cncc(-c2cnc(Nc3ccc(F)c(Cl)c3)nc2N2CCC(NC(C)=O)CC2)c1` [Example 129, ethyl 5-[4-(4-acetamidopiperidin-1-yl)-2-[(3-chloro-4-fluorophenyl)amino]pyrimidin-5-yl]pyridine-3-carboxylate], the inhibition at 13 µM amounted to 74.9%.

For the compound `CCOC(=O)c1cncc(-c2cnc(Nc3ccc(F)c(Cl)c3)nc2N2CC(C)OC(C)C2)c1` (stereo not shown) [Example 139, ethyl 5-(2-(3-chloro-4-fluorophenylamino)-4-(2,6-dimethylmorpholino)pyrimidin-5-yl)nicotinate], the inhibition at 13 µM was 80.1%.

For `CCOC(=O)c1cncc(-c2cnc(Nc3ccc(F)c(Cl)c3)nc2NCCCc2nc3ccccc3[nH]2)c1` [Example 140, ethyl 5-(4-(3-(1H-benzo[d]imidazol-2-yl)propylamino)-2-(3-chloro-4-fluorophenylamino)pyrimidin-5-yl)nicotinate], the inhibition at 13 µM worked out at 83.5%.

`CCOC(=O)c1cncc(-c2cnc(Nc3ccc(F)c(Cl)c3)nc2NCCCNC(=O)c2cnc(C)cn2)c1` [Example 141, ethyl 5-(2-(3-chloro-4-fluorophenylamino)-4-(3-(5-methylpyrazine-2-carboxamido)propyl-amino)pyrimidin-5-yl)nicotinate]: the inhibition at 13 µM came to 63.3%.

On to `CCOC(=O)c1cncc(-c2cnc(Nc3ccc(F)c(Cl)c3)nc2N2CCN(C(C)=O)CC2)c1` [Example 142, ethyl 5-(4-(4-acetylpiperazin-1-yl)-2-(3-chloro-4-fluorophenylamino)pyrimidin-5-yl)nicotinate], for which the inhibition at 13 µM was 86.2%.

For the compound `CCOC(=O)c1cncc(-c2cnc(Nc3ccc(F)c(Cl)c3)nc2NCCCOC)c1` [Example 143, ethyl 5-(2-(3-chloro-4-fluorophenylamino)-4-(3-methoxypropylamino)pyrimidin-5-yl)nicotinate], the inhibition at 13 µM is 88.6%.

As for `CCOC(=O)c1cncc(-c2cnc(Nc3ccc(F)c(Cl)c3)nc2N2CCOCC2)c1` [Example 144, ethyl 5-(2-(3-chloro-4-fluorophenylamino)-4-morpholinopyrimidin-5-yl)nicotinate], the inhibition at 13 µM stood at 76.4%.

On to `CCOC(=O)c1cncc(-c2cnc(Nc3ccc(F)c(Cl)c3)nc2NCc2cncn2C)c1` [Example 145, ethyl 5-(2-(3-chloro-4-fluorophenylamino)-4-((1-methyl-1H-imidazol-5-yl)methylamino)pyrimidin-5-yl) nicotinate], for which the inhibition at 13 µM came to 77.4%.

For the compound `CCOC(=O)c1cncc(-c2cnc(Nc3ccc(F)c(Cl)c3)nc2N[C@@H]2CCOC2)c1` [Example 146, (R)-ethyl 5-(2-(3-chloro-4-fluorophenylamino)-4-(tetrahydrofuran-3-ylamino)pyrimidin-5-yl)nicotinate], the inhibition at 13 µM is 79.7%.

On to `CCOC(=O)c1cncc(-c2cnc(Nc3ccc(F)c(Cl)c3)nc2N2CCCC2)c1` [Example 147, ethyl 5-(2-(3-chloro-4-fluorophenylamino)-4-(pyrrolidin-1-yl)pyrimidin-5-yl)nicotinate], for which the inhibition at 13 µM came to 65.4%.

`CCOC(=O)c1cncc(-c2cnc(Nc3ccc(F)c(Cl)c3)nc2NCc2cnn(C)c2)c1` [Example 148, ethyl 5-(2-(3-chloro-4-fluorophenylamino)-4-((1-methyl-1H-pyrazol-4-yl)methylamino)pyrimidin-5-yl)-nicotinate]: the inhibition at 13 µM came to 120%.

With `CCOC(=O)c1cncc(-c2cnc(Nc3ccc(F)c(Cl)c3)nc2NC(COC)COC)c1` [Example 149, ethyl 5-(2-(3-chloro-4-fluorphenylamino)-4-(1,3-dimethoxypropan-2-ylamino)pyrimidin-5-yl)nicotinate], the inhibition at 13 µM was determined as 82.2%.

As to `CCOC(=O)c1cncc(-c2cnc(Nc3ccc(F)c(Cl)c3)nc2N2CCN(CCOC)CC2)c1` [Example 150, ethyl 5-(2-(3-chloro-4-fluorophenylamino)-4-(4-(2-methoxyethyl)piperazin-1-yl)pyrimidin-5-yl)nicotinate], the inhibition at 13 µM stood at 53.3%.

`CCOC(=O)c1cncc(-c2cnc(Nc3ccc(F)c(Cl)c3)nc2N2CCN(C)CC2)c1` [Example 151, ethyl 5-(2-(3-chloro-4-fluorophenylamino)-4-(4-methylpiperazin-1-yl)pyrimidin-5-yl)nicotinate]: the inhibition at 13 µM stood at 50.1%.

For the compound `CCOC(=O)c1cncc(-c2cnc(Nc3ccc(F)c(Cl)c3)nc2N2CCCCC2)c1` [Example 152, ethyl 5-(2-(3-chloro-4-fluorophenylamino)-4-(piperidin-1-yl)pyrimidin-5-yl)nicotinate], the inhibition at 13 µM came to 0.54%.

As to `CCOC(=O)/C=C/c1cccc(-c2cnc(Nc3ccc(F)c(Cl)c3)nc2-n2cnc(Cl)c2Cl)c1` [Example 161, ethyl (2E)-3-(3-{2-[(3-chloro-4-fluorophenyl)amino]-4-(4,5-dichloro-1H-imidazol-1-yl)pyrimidin-5-yl}phenyl)prop-2-enoate], the inhibition at 13 µM came to 74.8%.

`CCOC(=O)/C=C/c1cccc(-c2cnc(Nc3ccc(F)c(Cl)c3)nc2N2CC(C)OC(C)C2)c1` (stereo not shown) [Example 163, (E)-ethyl 3-(3-(2-(3-chloro-4-fluorophenylamino)-4-(2,6-dimethylmorpholino)pyrimidin-5-yl)phenyl)acrylate]: the inhibition at 13 µM was determined as 55%.

For `CCOC(=O)/C=C/c1cccc(-c2cnc(Nc3ccc(F)c(Cl)c3)nc2N2CCN(C(=O)N(C)C)CC2)c1` [Example 164, (E)-ethyl 3-(3-(2-(3-chloro-4-fluorophenylamino)-4-(4-(dimethylcarbamoyl)piperazin-1-yl)pyrimidin-5-yl)phenyl)acrylate], the inhibition at 13 µM was 47%.

Turning to `CCOC(=O)/C=C/c1cccc(-c2cnc(Nc3ccc(F)c(Cl)c3)nc2NCCCNC(=O)c2cnc(C)cn2)c1` [Example 165], the inhibition at 13 µM stood at 56.9%.

Consider `CCOC(=O)/C=C/c1cccc(-c2cnc(Nc3ccc(F)c(Cl)c3)nc2N2CCOCC2)c1` [Example 166, (E)-ethyl 3-(3-(2-(3-chloro-4-fluorophenylamino)-4-morpholinopyrimidin-5-yl)phenyl)acrylate], for which the inhibition at 13 µM was 37.4%.

Consider `CCOC(=O)/C=C/c1cccc(-c2cnc(Nc3ccc(F)c(Cl)c3)nc2NCCCOC)c1` [Example 167, (E)-ethyl 3-(3-(2-(3-chloro-4-fluorophenylamino)-4-(3-methoxypropylamino)pyrimidin-5-yl)phenyl)acrylate], for which the inhibition at 13 µM is 31.1%.

`CCOC(=O)/C=C/c1cccc(-c2cnc(Nc3ccc(F)c(Cl)c3)nc2NCc2cnn(C)c2)c1` [Example 168, (E)-ethyl 3-(3-(2-(3-chloro-4-fluorophenylamino)-4-((1-methyl-1H-pyrazol-4-yl)methylamino)pyrimidin-5-yl)phenyl)acrylate]: the inhibition at 13 µM stood at 66.4%.

On to `CCOC(=O)/C=C/c1cccc(-c2cnc(Nc3ccc(F)c(Cl)c3)nc2N[C@@H]2CCOC2)c1` [Example 169, (R,E)-ethyl 3-(3-(2-(3-chloro-4-fluorophenylamino)-4-(tetrahydrofuran-3-ylamino)pyrimidin-5-yl)phenyl)acrylate], for which the inhibition at 13 µM came out at 34.2%.

With `CCOC(=O)/C=C/c1cccc(-c2cnc(Nc3ccc(F)c(Cl)c3)nc2N2CCN(C)CC2)c1` [Example 170, (E)-ethyl 3-(3-(2-(3-chloro-4-fluorophenylamino)-4-(4-methylpiperazin-1-yl)pyrimidin-5-yl)phenyl)acrylate], the inhibition at 13 µM came to 46%.

`CCOC(=O)/C=C/c1cccc(-c2cnc(Nc3ccc(F)c(Cl)c3)nc2N2CCCCC2)c1` [Example 171, (E)-ethyl 3-(3-(2-(3-chloro-4-fluorophenylamino)-4-(piperidin-1-yl)pyrimidin-5-yl)phenyl)acrylate]: the inhibition at 13 µM is 3.62%.

Take `CCOC(=O)/C=C/c1cccc(-c2cnc(Nc3ccc(F)c(Cl)c3)nc2NCc2cncn2C)c1` [Example 172, (E)-ethyl 3-(3-(2-(3-chloro-4-fluorophenylamino)-4-((1-methyl-1H-imidazol-5-yl)methylamino)pyrimidin-5-yl)phenyl)acrylate]: the inhibition at 13 µM is -32.8%.

As for `CCOC(=O)/C=C/c1cccc(-c2cnc(Nc3ccc(F)c(Cl)c3)nc2NC(COC)COC)c1` [Example 173, (E)-ethyl 3-(3-(2-(3-chloro-4-fluorophenylamino)-4-(1,3-dimethoxypropan-2-ylamino)pyrimidin-5-yl)phenyl)acrylate], the inhibition at 13 µM was 34.7%.

As for `CCOC(=O)/C=C/c1cccc(-c2cnc(Nc3ccc(F)c(Cl)c3)nc2N2CCN(S(C)(=O)=O)CC2)c1` [Example 174, (E)-ethyl 3-(3-(2-(3-chloro-4-fluorophenylamino)-4-(4-(methylsulfonyl)piper-azin-1-yl)pyrimidin-5-yl)phenyl)acrylate], the inhibition at 13 µM was found to be 52.1%.

Take `CCOC(=O)c1cn(CCOC)c2ccc(-c3cnc(Nc4ccc(F)c(Cl)c4)nc3N3CCOCC3)cc2c1=O` [Example 175, ethyl 6-(2-(3-chloro-4-fluorophenylamino)-4-morpholinopyrimidin-5-yl)-1-(2-methoxyethyl)-4-oxo-1,4-dihydroquinoline-3-carboxylate]: the inhibition at 13 µM was determined as 80%.
